Laboratory results taken from US8691184B2, “Bcl-2/Bcl-xL inhibitors and therapeutic methods using the same” (The Regents of the University of Michigan, priority 2011, dated 2014).

What was measured:
H146 xenograft tumors [1] = test: Apoptosis induction in H146 xenograft tumors; type: in vivo, SCID mice
Procedure: (§1) Compounds 150, 133, and 169 were tested for their toxicity in severe combined immunodeficiency (SCID) mice. SCID mice bearing xenograft tumors were treated with vehicle control, or a single dose of a compound, and tumors were removed at different time-points for western blot analysis of cleavage of PARP (CL-PARP) and caspase-3 (CL Cas-3). The ability of compounds 150 and 169 to induce apoptosis at their MTD in RS4;11 or H146 xenograft tumors in SCID mice was tested. In these experiments, RS4;11 or H146 tumors were allowed to grow to 200-300 mm^3 in female SCID mice. A single dose of the compound was administered to the animals and tumor tissues were analyzed for cleavage of PARP and caspase-3.

RS4;11 xenograft tumors = test: Apoptosis induction in RS4;11 xenograft tumors; type: in vivo, SCID mice; details: RS4;11 model, single dose
Procedure: as §1

[2] = Toxicity (maximum tolerated dose) in SCID mice; type: in vivo
Excerpt: These experiments established the maximum tolerated doses (MTD).

H146 xenograft tumors [3] = test: Antitumor activity in the H146 xenograft tumor model; type: in vivo
Procedure: The antitumor activity of compound 169 in the H146 xenograft tumor model also was tested. […] At the end of the treatment (day 39), compound 169 inhibited the tumor growth by 100% (p<0.0001, t-test).

Cc1c(C(=O)O)c(-c2cccc(N3CCN(c4ccc(NS(=O)(=O)c5ccc(N[C@H](CCN6CCC(O)CC6)CSc6ccccc6)c(S(=O)(=O)C(F)(F)F)c5)cc4)CC3)c2)c(-c2ccc(Cl)cc2)n1C.Cl [Compound 169, (R)-5-(4-chlorophenyl)-4-(3-(4-(4-(4-((4-(4-hydroxypiperidin-1-yl)-1-(phenylthio)butan-2-yl)amino)-3-((trifluoromethyl)sulfonyl)phenylsulfonamido)phenyl)piperazin-1-yl)phenyl)-1,2-dimethyl-1H-pyrrole-3-carboxylic acid]
Cleavage of PARP and caspase-3 in xenograft tumor tissues (H146 xenograft tumors [1]; H146, single-dose 50 mg/kg IV, 3 hr and 6 hr-time points): induced cleavage of PARP and caspase-3
Cleavage of PARP and caspase-3 in tumor tissues (H146 xenograft tumors [1]; H146 model, single dose): strong effect in induction of cleavage of PARP and caspase-3
Cleavage of PARP and caspase-3 in tumor tissues (RS4;11 xenograft tumors): strong effect in induction of cleavage of PARP and caspase-3
Weight loss at higher dose ([2]; SCID mice, 75 mg/kg): caused weight loss
Weight loss or other signs of toxicity ([2]; female SCID mice, intravenously, daily, 5-times a week for 2 weeks): no or minimal weight loss or other signs of toxicity
Tumor growth inhibition versus vehicle-treated tumors (H146 xenograft tumors [3]; day 53, 2 weeks after the treatment was stopped, p=0.0001): 79%
Other signs of toxicity (H146 xenograft tumors [3]; during the entire experiment): no other signs of toxicity
Weight loss (H146 xenograft tumors [3]; during the entire experiment): < 3%
Tumor growth inhibition (H146 xenograft tumors [3]; end of the treatment (day 39), p<0.0001): 100%
